Values joined by “and” are separate entries in the source; they are usually repeats but may differ in a detail not shown here. Equal values may be shown once. “Also recorded” adds a separate entry of the source. Residues, ends and D or L forms follow the SMILES beside them.
How the values were obtained:
p110α = p110α (Homo sapiens, UniProt P42336); experiment: NMR STD and Water-LOGSY interaction with p110α; format: binding; settings: 1 mM peptide, 8 µM p110α
Experimental: Here we chose Nuclear Magnetic Resonance (NMR) as an orthogonal technique to detect the cyclo-CRVLIR binding to p110α. We applied two commonly used NMR-based techniques that can detect protein/ compound interaction: STD (Saturation transfer difference), and Water-LOGSY (water-ligand observed through gradient spectroscopy)[34],[35].
NMR experiments were performed at 20 °C using a Bruker Avance IIIHD spectrometer operating at 700 MHz. STD experiments employed off-resonance saturation (2 s) at − 40 ppm, and on-resonance at − 1 ppm. Waterlogsy experiments used a mixing time of 1.5 s.

p110α (p110α/p85α) = p110α (p110α/p85α) (Homo sapiens, UniProt P42336); experiment: Microscale thermophoresis (MST) binding to labelled p110α/p85α
H1373 cells = experiment: Western blot of phospho-AKT / phospho-ERK in H1373 cells; format: cell-based, human; settings: 4 h
H1792 cells = experiment: Western blot of phospho-AKT / phospho-ERK in H1792 cells; format: cell-based, human; settings: 4 h
Experimental: We treated the human lung cancer cell line H1792, growing at steady-state in Roswell Park Memorial Institute (RPMI) 1640 media with 10% Foetal Calf Serum (FCS), with the seven cyclic peptides at three different concentrations (2, 10 and 50 µM) for 4 h. After treatment we measured the effect of the peptides on the phosphorylation levels of AKT (pAKT-Ser473), a key downstream effector of p110α activity. […] In contrast, the phosphorylation levels of ERK (p-ERK), which is a downstream effector of the RAS/RAF/MEK/ERK pathway and is independent of p110α activity, were not affected.
The next day, 1 ml of medium was removed and the cells were treated with different peptide concentrations for 4 h. All peptides were dissolved in 25 mM Tris pH8, 100 mM NaCl and 1 mM TCEP. Cells were then harvested and lysed for SDS-PAGE and western blot analysis. Anti-calnexin antibody was obtained from Abcam. Antibodies directed against phospho-T202/Y204-ERK, ERK, phospho-S473-AKT and AKT were obtained from Cell Signaling. After western blotting, calnexin, AKT and phospho-AKT signals were quantified using ImageJ and statistical tests were done using Prism software.

Sm-KRAS/Lg-RBDα = molecular target: T1, Sm-KRAS/Lg-RBDα (Homo sapiens, UniProt P42336); experiment: NanoBiT Biochemical Assay (NBBA) Sm-KRAS/Lg-RBDα; settings: HEK293 cell lysate, 50 µM
T1 construct: Lg-BiT fused to the RBD of either p110α, p110 δ or p110γ; expressed in transfected cells; host or cells: HEK293 (lysate)
Source text: We next sought to determine whether cyclo-CRVLIR binds specifically to p110α or if it can also interact with other PI3K isoforms. We chose the NBBA (NanoBiT Biochemical Assay), which was previously developed by our laboratory, as a tool to detect if cyclo-CRVLIR could inhibit the interaction of RAS with p110α, p110 δ and p110γ[36]. The NBBA is biochemical adaptation of the NanoBiT cellular assay that is based on the split luciferase NanoLuc system that uses separate Large-BiT (Lg-BiT) and Small-BiT (Sm-BiT) components, each fused to a protein of interest. When the Lg-BiT and Sm-BiT proteins are brought into close proximity, upon the binding of their cognate target proteins, they produce a luminescence signal. […] Cells were harvested at 48 h post-transfection and the cell lysates tested for the interaction of Sm-KRAS with each of the PI3K binding isoforms in the presence or absence of 50 µM cyclo-CRVLIR.
The production of the Sm-KRAS, and the Lg-RBD- of p110α, β, δ, γ constructs and lysate are described in detail in a previous report. The cell lysate was treated with 50 µM cyclo-CRVLIR for 20–30 min before detection by the addition of the Nano-Glo.

p110α/KRAS interaction = p110α/KRAS interaction (Homo sapiens, UniProt P42336); experiment: MST competition assay of the p110α/KRAS interaction; format: binding; settings: 20 µM peptide
Experimental: We next wanted to test whether the cyclo-CRVLIR peptide is capable of inhibiting the p110α/KRAS interaction.
Measurements were performed using a NanoTemper Monolith™ NT.115 instrument (NanoTemper Technologies GmbH, München, Germany). Protein samples were labelled with the amine reactive dye NT-647 (or NT-495) using the Monolith™ NT.115 Protein Labeling Kit RED-NHS (or Monolith™ NT.115 Protein Labeling Kit BLUE-NHS). Labelling levels (generally in the range 0.3–0.4 dye molecules per protein molecule) were determined using calculated extinction coefficients for the protein and ε647 = 250,000 M^−1 cm^−1 (or ε495 = 70,000 M^−1 cm^−1) for the dye concentration. In a typical experiment […] aliquots of a 100 nM stock solution of labelled protein were mixed with […] aliquots of a serial dilution of binding partner. These solutions were then loaded into standard treated capillaries and MST measurements were performed at 25 °C using 20–40% LED power and 40–60% IR-Laser power. The laser Laser-On time was 30 s and Laser-Off time 5 s. All measurements were performed at least five times.

[1] = Solubility of the peptides (in words); format: physicochemical

Chain of p110α/KRAS interaction (P42336 whole entry, species assumed): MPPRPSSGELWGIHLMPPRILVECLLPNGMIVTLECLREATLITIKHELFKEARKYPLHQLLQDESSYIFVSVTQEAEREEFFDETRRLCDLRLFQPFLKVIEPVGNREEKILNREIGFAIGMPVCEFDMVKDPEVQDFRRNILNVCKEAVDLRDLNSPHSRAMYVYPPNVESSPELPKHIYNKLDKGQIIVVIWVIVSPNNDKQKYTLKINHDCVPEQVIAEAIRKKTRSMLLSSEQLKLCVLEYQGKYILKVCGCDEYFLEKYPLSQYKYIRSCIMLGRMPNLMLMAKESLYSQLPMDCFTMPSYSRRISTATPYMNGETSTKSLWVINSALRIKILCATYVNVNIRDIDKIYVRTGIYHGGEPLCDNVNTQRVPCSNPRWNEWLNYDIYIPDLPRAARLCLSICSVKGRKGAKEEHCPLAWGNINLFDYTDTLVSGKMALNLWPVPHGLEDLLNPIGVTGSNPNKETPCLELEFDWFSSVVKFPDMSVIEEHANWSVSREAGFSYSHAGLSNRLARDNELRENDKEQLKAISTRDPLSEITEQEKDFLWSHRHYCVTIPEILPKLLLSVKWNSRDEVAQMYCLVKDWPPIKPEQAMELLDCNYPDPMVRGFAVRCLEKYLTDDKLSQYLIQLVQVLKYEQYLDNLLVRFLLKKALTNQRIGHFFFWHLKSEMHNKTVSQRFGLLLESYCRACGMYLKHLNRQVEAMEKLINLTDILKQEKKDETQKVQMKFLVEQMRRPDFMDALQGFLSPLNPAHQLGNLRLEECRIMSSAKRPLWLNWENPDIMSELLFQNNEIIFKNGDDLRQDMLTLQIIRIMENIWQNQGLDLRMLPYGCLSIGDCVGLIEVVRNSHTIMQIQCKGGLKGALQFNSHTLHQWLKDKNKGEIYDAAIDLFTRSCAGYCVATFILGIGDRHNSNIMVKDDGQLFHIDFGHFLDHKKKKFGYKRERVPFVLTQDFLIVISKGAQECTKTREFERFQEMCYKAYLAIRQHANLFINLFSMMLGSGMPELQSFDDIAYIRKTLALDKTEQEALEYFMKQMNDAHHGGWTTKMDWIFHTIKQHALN
Chain of p110α/KRAS interaction (P27986 whole entry partner, species assumed): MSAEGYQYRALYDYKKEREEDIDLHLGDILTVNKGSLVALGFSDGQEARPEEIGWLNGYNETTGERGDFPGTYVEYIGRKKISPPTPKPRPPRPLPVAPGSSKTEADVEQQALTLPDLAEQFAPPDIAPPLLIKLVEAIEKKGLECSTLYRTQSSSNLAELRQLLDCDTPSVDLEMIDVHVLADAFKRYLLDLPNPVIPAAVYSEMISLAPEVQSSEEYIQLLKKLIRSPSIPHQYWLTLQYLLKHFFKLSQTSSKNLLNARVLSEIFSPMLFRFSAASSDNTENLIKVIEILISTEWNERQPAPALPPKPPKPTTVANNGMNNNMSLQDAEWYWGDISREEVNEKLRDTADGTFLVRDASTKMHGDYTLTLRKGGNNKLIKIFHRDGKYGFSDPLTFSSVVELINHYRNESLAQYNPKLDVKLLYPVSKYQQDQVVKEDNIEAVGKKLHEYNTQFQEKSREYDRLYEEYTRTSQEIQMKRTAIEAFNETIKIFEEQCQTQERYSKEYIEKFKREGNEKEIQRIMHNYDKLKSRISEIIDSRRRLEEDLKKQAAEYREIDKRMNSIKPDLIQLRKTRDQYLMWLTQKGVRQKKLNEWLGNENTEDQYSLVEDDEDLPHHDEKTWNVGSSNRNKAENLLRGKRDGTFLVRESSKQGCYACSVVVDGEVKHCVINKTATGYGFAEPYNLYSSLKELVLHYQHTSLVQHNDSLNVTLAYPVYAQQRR
Chain of p110α (p110α/p85α) (P42336 whole entry, species assumed): as the sequence (P42336 whole entry, species assumed) above
Chain of p110α (p110α/p85α) (P27986 whole entry partner, species assumed): as the sequence (P27986 whole entry partner, species assumed) above
T1 sequence (P42336 187-289 limits assumed): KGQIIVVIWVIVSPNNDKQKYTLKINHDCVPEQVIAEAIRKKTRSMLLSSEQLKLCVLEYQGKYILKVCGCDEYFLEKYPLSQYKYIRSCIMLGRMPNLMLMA
Chain of p110α (P42336 whole entry, species assumed): as the sequence (P42336 whole entry, species assumed) above
Chain of p110α (P27986 whole entry partner, species assumed): as the sequence (P27986 whole entry partner, species assumed) above

interaction with p110α by STD and Water-LOGSY NMR (p110α): clear signal of interaction | increase in affinity for p110α over cyclo-CRVLAA (p110α (p110α/p85α); MST): ~120 fold | Kd (p110α (p110α/p85α); labelled protein 100 nM, 25 °C): 2900 nM and 3000 nM
SMILES: CC[C@H](C)[C@@H]1NC(=O)[C@H](CC(C)C)NC(=O)[C@H](C(C)C)NC(=O)[C@H](CCCNC(=N)N)NC(=O)[C@H](CS)NC(=O)[C@H](CCCNC(=N)N)NC1=O [cyclo-CRVLIR, Cyclo-CRVLIR] (cyclo(CRVLIR))
effect on phospho-AKT (pAKT-S473) levels (H1373 cells; H1373 cells, 4, 20 and 100 µM): inhibition of pAKT; also recorded: reduces the levels of pAKT | effect on phosphorylation levels of ERK (p-ERK) (H1373 cells; H1373 cells): not affected | effect on phosphorylation levels of ERK (p-ERK) (H1792 cells): not affected | effect on phospho-AKT (pAKT-Ser473) levels (H1792 cells; RPMI 1640 10% FCS, 2, 10 and 50 µM (also 4, 20 and 100 µM)): dose dependent effect; also recorded: reduces the levels of pAKT | inhibition of the Sm-KRAS/Lg-RBDα interaction signal (Sm-KRAS/Lg-RBDα): reduction in the interaction signal; also recorded: able to inhibit | p110α/KRAS interaction in the presence of the peptide (p110α/KRAS interaction): blocked; also recorded: did not detect the p110α/KRAS interaction; also recorded: inhibits the p110α/RAS interaction | solubility in words [1]: more soluble than the parent peptide cyclo-CRVLAA; also recorded: significantly more soluble than our original cyclo-CRVLAA peptide
